# “Also recorded” adds a separate entry of the source. No end group written: not given here.
# Assays:
# [1] = tested on: PBMC cells; assay: PBMC cell viability, Alamar Blue, 24 hours (Example 8); type: cell-based, human; settings: 1, 10 and 40 μg/ml, 0.6 and 20.0 pg/ml LPS
# Method: FIG. 39. Cell viability of PBMC cells following exposure for 24 hours to Alamar Blue and HD5, hBD-1, hBD-2, hBD-3 and hBD-4 at concentrations of 1, 10 and 40 μg/ml.
# PBMC cell viability following exposure for 24 hours to Alamar Blue and HD5,hBD-1, hBD-2, hBD-3 and hBD-4 at concentrations of 1, 10 and 40 μg/ml at 0.6 and 20.0 pg/ml LPS respectively (FIG. 39).
# [2] = tested on: microbiota of the intestine; assay: Prophylactic high fat diet murine model, 16S microbial analyses (Example 1); type: in vivo, mice
# Source text: The overall experimental design is shown in FIG. 1, top panel “Prophylactic study”. Mice: Mice were housed in trios, 4 cages per group. Feed intake was registered daily just before lights were turned off at 6 pm. Individual mice were subjected to experimental procedures in altered order both group and cage wise. Mice were kept at room temperature under a 12-hour light/dark cycle at SPF standard conditions. Diets: For dosing, the average weight was estimated to be 25 grams per mouse. Mice eat approximately 3 grams of feed per mouse per day.
# Treatment regime: Mice were fed either a high fat diet (HFD) or a low fat (LF) control diet. The HFD contained 4 subgroups; a) hBD-2, b) HD5, c) hBD-2/HD5 and d) standard HFD without supplementation of defensins. Defensin concentration was 1,2 mg hBD-2 per kg mouse per day. HD5 was given in equimolar concentration to hBD-2.
# Microbial analyses were carried out to study the microbiota of the intestine. Longitudinal 16S characterization was conducted on 4 paired samples from 60 mice, 240 samples in total. Each mouse was sampled prior to diet change, 1 week post diet change, 4 weeks post diet change and at termination, thus ensuring a thorough characterization of the faecal microbiota as a result of defensin treatment.
# [3] = tested on: bacteria localization at the surface of the intestinal mucosa; assay: Localization of bacteria by FISH with mucin immunostaining, lysis zone (Example 14); type: in vivo; settings: orally administered; compared with mice on a low fat or western diet
# Method: Immunostaining of mucins and localization of bacteria by FISH Mucus immunostaining was paired with fluorescent in situ hybridization (FISH), as previously described in order to analyze bacteria localization at the surface of the intestinal mucosa. Briefly, colonic tissues (proximal colon, 2nd cm from the cecum) without fecal material were placed in methanol-Carnoy's fixative solution (60% methanol, 30% chloroform, 10% glacial acetic acid) for a minimum of 3 hours at room temperature. Tissues were then washed in methanol 2×30 min, ethanol 2×15 min, ethanol/xylene (1:1), 15 min and xylene 2×15 min, followed by embedding in Paraffin with a vertical orientation. Five μm sections were performed and dewax by preheating at 60° C. for 10 min, followed by xylene 60° C. for 10 min, xylene for 10 min and 99.5% ethanol for 10 minutes. Hybridization step was performed at 50° C. overnight with EUB338 probe (5′-GCTGCCTCCCGTAGGAGT-3′, with a 5′ labeling using Alexa 647) diluted to a final concentration of 10 μg/mL in hybridization buffer (20 mM Tris-HCl, pH 7.4, 0.9 M NaCl, 0.1% SDS, 20% formamide). After washing 10 min in wash buffer (20 mM Tris-HCl, pH 7.4, 0.9 M NaCl) and 3×10 min in PBS, PAP pen (Sigma-Aldrich) was used to mark around the section and block solution (5% fetal bovine serum in PBS) was added for 30 min at 4° C. […]
# [4] = tested on: BALB/c mice; assay: Therapeutic intervention in murine house dust mite/Freund's complete adjuvant driven model of allergic asthma, histopathology and cytokines (Example 7); type: in vivo; settings: for Histological inflammation of lung tissue: vs HDM challenged vehicle
# Method: Treatment regime: Female 7-10 weeks old BALB/c mice randomly allocated into 4 study groups one day prior to study start were subcutaneously (SC) sensitized to house dust mite (100 μg HDM in 200 μL saline plus Freund's complete adjuvant in 0.9% saline). Mice were intranasally (IN) challenged with HDM on day 14 (HDM 25 μg in 50 μL of saline). hBD-2 was administered IN or orally (0.4 mg/kg TID IN; 0.4 mg/kg TID orally, 50 μL phosphate buffered saline) on day 14. The initial dose was administered 60 minutes prior to challenge, and the subsequent doses approximately 6 hours apart (FIG. 3, groups 1-4)).
# Blood sampling: All terminal blood samples were collected via jugular vein bleeds. Blood was sampled to Li-heparin tubes, put on ice and immediately centrifuged at 4° C. Plasma was separated and stored at −80° C. until the potential SCFA analysis. Lung tissue sampling: The lungs were exposed and excised by gently opening the thorax and by cutting down either side of the sternum and ribs and trimming back. […]
# Cellular influx (mononuclears, eosinophils, neutrophils) was assessed semi-quantitatively on H&E stained slides separately for peri-bronchial/bronchiolar and perivascular space as follows: • 0 absent • 1 few scattered inflammatory cells • 2 larger aggregates • 3 marked accumulation of cells
# Overall score for inflammation was calculated as the sum of all individual scores. Goblet cell metaplasia, separately at a level of large airways and distal airways, was assessed at PAS-stained slides as follows: • 0 no mucus containing cells along basement membrane • 1 few positive cells along basement membrane with less than 75% of the cytoplasm stained • 2 few positive cells along basement membrane with more than 75% of the cytoplasm stained • 3 numerous positive cells along basement membrane with less than 75% of the cytoplasm stained • 4 numerous positive cells along basement membrane with more than 75% of the cytoplasm stained […]
substance,measurement,setting,value
human beta defensin 2 (GIGDPVTCLKSGAICHPVFCPRRYKQIGTCGLPGTKCCKKP; ends and bridges not checked; cysteine pairing not given here; listed as Homo sapiens) [hBD-2],Toxicity (PBMC cell viability),[1],not toxic irrespectively of concentration; also recorded: not to be toxic
same,Abundance of Barnesiella,"[2]; colon, prophylactic treatment, p<0.03",statistically significant increase in abundance of Barnesiella
same,Abundance of Lactobacillus,"[2]; colon, prophylactic treatment, p=0.1",trend towards lower abundance of Lactobacillus
same,"Microbial presence and abundance (unifrac, genus analysis)","[2]; prophylactic oral defensin in HFD, 1,2 mg hBD-2 per kg per day, HD5 equimolar, mix 50%+50%",affected primarily the microbial presence
same,Distance from the intestinal lining to bacterial population (lysis zone),[3],profound effect on the distance
same,Histological inflammation of lung tissue,[4]; intranasal 0.4 mg/kg TID on day 14,effectively inhibited the increase in histological inflammation of lung tissue
same,Histological inflammation of lung tissue,[4]; oral 0.4 mg/kg TID on day 14,effectively inhibited the increase in histological inflammation of lung tissue
same,IL-5 level in lung tissue homogenate,[4]; oral administration,Significant effects

# Reference: patent US20250009844A1, “MATURATION OF MUCOSAL DEFENSE AND GUT/LUNG FUNCTION IN THE PRETERM INFANT” (Novozymes A/S, priority 2017, published 2025)
